We go through 4 compounds from paper PMC10847513, “Plastid ancestors lacked a complete Entner-Doudoroff pathway, limiting plants to glycolysis and the pentose phosphate pathway” (Nature Communications, 2024).

For assay [1], the target named is T1, GmEDA (soybean KDPG aldolase, pseudomature) (Glycine max, UniProt K7LFS1).
T1 construct: gene LOC100800025
T1 sequence (K7LFS1 1-256): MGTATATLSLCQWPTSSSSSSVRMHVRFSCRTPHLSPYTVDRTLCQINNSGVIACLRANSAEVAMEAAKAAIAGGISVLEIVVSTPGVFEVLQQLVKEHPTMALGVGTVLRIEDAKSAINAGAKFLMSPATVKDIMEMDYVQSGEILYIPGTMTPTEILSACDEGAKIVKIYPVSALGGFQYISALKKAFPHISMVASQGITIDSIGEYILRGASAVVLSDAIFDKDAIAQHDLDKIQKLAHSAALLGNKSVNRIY
Nature of the assay: LCMS/MS product assay, Lineweaver-Burk. Particulars: pH 8.0, 30 °C, 50 mM KH2PO4, 100 mM NaCl, 1 mM DTT; substrate 0.25-1 mM; aldol cleavage. The assay is classed as biochemical.

A further assay has as its target E. coli EDA (Escherichia coli, UniProt P0A955). Particulars: pH 8.0, 30 °C, 50 mM KH2PO4, 100 mM NaCl, 1 mM DTT; aldol cleavage to GAP and pyruvate.
In another assay the target is T2, E. coli DHAD (Escherichia coli, UniProt P05791).
T2 construct: gene ilvD; full length, His-tagged (pET28), E. coli BL21(DE3), Ni-NTA
Nature of the assay: LCMS/MS product assay. The assay is classed as biochemical. Particulars: pH 8.0, 30 °C, 100 mM Tris-HCl, 10 mM MgCl2, 1 mM DTT; 4.4 mM substrate; dehydration to 2-ketoisovalerate.

In the next assay the target is T3, E. coli EDD (Escherichia coli, UniProt P0ADF6).
T3 construct: full length, His-tagged (pET28), E. coli BL21(DE3), Ni-NTA
T3 sequence (P0ADF6 1-603): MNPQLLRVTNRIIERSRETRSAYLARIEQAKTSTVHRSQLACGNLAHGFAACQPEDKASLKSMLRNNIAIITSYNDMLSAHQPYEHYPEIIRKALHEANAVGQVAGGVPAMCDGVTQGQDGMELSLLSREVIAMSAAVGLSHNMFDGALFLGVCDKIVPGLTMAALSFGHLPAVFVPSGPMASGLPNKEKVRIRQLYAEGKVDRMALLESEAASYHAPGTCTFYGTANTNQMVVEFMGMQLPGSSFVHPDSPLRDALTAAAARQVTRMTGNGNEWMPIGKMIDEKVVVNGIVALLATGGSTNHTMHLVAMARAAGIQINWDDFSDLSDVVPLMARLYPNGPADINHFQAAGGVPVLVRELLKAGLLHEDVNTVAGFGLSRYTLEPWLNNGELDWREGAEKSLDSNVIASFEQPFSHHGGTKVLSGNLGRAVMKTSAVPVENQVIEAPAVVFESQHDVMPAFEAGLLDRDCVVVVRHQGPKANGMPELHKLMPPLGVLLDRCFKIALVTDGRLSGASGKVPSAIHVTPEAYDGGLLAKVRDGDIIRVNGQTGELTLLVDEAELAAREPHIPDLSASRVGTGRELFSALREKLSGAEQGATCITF
Briefly: LCMS/MS product assay. The class given is biochemical. Particulars: pH 8.0, 30 °C, 100 mM Tris-HCl, 10 mM MgCl2, 1 mM DTT; 4.4 mM substrate; dehydration to KDPG.

Sequence of E. coli EDA (P0A955 whole entry): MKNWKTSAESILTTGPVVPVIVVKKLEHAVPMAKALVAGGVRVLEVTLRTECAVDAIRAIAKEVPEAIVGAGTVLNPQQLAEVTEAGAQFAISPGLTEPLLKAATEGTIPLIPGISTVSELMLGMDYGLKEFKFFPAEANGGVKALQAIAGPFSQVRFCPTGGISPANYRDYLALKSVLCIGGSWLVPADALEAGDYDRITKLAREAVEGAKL
T2 sequence (P05791 2-616): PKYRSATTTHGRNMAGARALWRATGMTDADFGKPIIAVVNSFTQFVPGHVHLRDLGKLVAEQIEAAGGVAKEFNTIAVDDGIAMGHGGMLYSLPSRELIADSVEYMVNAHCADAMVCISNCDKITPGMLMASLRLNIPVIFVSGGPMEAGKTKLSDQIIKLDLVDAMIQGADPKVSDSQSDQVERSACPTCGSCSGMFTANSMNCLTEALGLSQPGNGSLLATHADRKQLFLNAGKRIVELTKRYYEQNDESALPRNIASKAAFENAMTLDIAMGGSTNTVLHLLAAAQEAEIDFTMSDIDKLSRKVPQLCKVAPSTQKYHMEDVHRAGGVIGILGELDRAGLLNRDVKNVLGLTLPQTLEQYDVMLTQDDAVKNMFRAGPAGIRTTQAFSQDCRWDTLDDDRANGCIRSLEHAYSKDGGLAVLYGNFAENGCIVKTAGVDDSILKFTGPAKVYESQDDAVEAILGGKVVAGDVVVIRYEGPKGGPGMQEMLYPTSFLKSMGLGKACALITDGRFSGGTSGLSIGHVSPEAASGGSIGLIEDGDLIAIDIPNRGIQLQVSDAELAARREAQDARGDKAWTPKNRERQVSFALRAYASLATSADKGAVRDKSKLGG

By Km is commonly meant the substrate concentration at which the rate is half of its maximum. As for `O=C(O)C(=O)C[C@H](O)[C@H](O)COP(=O)(O)O` [KDPG], in assay [1], the Km worked out at 310 µM. In addition, the “LCMS/MS and GC-MS product assay” value at E. coli EDA was “enzymatic assay of soybean and E. coli EDA when KDPG was supplied as substrate”. With `CC(C)(O)[C@@H](O)C(=O)O` [DIV], on E. coli DHAD, the LCMS/MS product assay result is “soybean and E. coli DHAD both converted DIV to its corresponding dehydration product”.

As for `O=P(O)(O)OC[C@H]1OC(O)(COP(=O)(O)O)[C@@H](O)[C@@H]1O` (stereo partly drawn) [D-fructose-1,6-bisphosphate], in assay [1], the Michaelis constant (Km) turned out to be 1260 µM. Take `O=C(O)[C@H](O)[C@@H](O)[C@H](O)[C@H](O)COP(=O)(O)O` [6-PG]: on E. coli EDD, the LCMS/MS product assay entry was “E. coli EDD catalyzed the expected dehydration of 6-PG to KDPG”.
